Data on 1 molecule can be found in ChEMBL document CHEMBL2321853, “Novel acylethanolamide derivatives that modulate body weight through enhancement of hypothalamic pro-opiomelanocortin (POMC) and/or decreased neuropeptide Y (NPY)” (J Med Chem, 2013).

Assay [1] has as its system Mus musculus. The assay is described as follows: Enhancement of motor activity in Sabra mouse at 1 mg/kg, ip administered on day 6 to 10 by open field test relative to control. In kind it is functional. The following applies: route intraperitoneal.
The subject of assay [2] is Mus musculus. As to the kind of experiment: Increase in motor activity Sabra mouse at 1 mg/kg, ip administered on day 8, 9, 10, 11, 14, 18, 24 and 32 measured on day 14 by open field test. Type of assay: functional, organism-based. Set-up: dose 1 mg/kg.
Assay [3] concerns Mus musculus. The assay is described as follows: Antiobesity activity in Sabra mouse assessed as change in body weight at 1 mg/kg, ip administered on day 8, 12 and 43 measured on day 50 relative to control. In kind it is functional. The note with it: route intraperitoneal.
In assay [4] the test system is Mus musculus. The assay is described as follows: Antiobesity activity in Sabra mouse assessed as change in body weight at 1 mg/kg, ip administered on day 8, 12 and 43 measured on day 29 relative to control. In kind it is functional. The note with it: route intraperitoneal.
For assay [5], the system named is Mus musculus. As to the kind of experiment: Antiobesity activity in high fat diet fed C57BL/6 mouse assessed as reduction food consumption at 1 mg/kg, ip administered on day 3, 6, 8, 9, 10 measured after week 2 relative to control. In kind it is functional. Set-up: scale not given: the % may be the effect or the level left. The note with it: route intraperitoneal.

In assay [6] the test system is Mus musculus. As to the kind of experiment: Antiobesity activity in Sabra mouse assessed as change in body weight at 1 mg/kg, ip administered on day 8, 12 and 43 measured on day 36 relative to control. In kind it is functional. The note with it: route intraperitoneal.
Assay [7] has as its system Mus musculus. The assay is described as follows: Antiobesity activity in Sabra mouse assessed as change in body weight at 1 mg/kg, ip administered on day 8, 9, 10, 11, 14, 18, 24 and 32 measured on day 4 relative to control. In kind it is functional. The following applies: route intraperitoneal.
Assay [8] concerns Mus musculus. The assay is described as follows: Antiobesity activity in Sabra mouse assessed as reduction in body weight at 1 mg/kg, ip administered on day 0, 10, 11, 12, 24, 29 measured on day 26 relative to control. The following applies: route intraperitoneal. In kind it is functional. Set-up: scale not given: the % may be the effect or the level left.
Assay [9] relates to Mus musculus. The assay is described as follows: Antiobesity activity in Sabra mouse assessed as reduction in body weight at 1 mg/kg, ip administered on day 0, 10, 11, 12, 24, 29 measured on day 24 relative to control. The following applies: route intraperitoneal. In kind it is functional. Set-up: scale not given: the % may be the effect or the level left.
For assay [10], the system named is Mus musculus. The assay is described as follows: Antiobesity activity in Sabra mouse assessed as reduction in body weight at 1 mg/kg, ip administered on day 0, 10, 11, 12, 24, 29 measured on day 19 relative to control. Type of assay: functional. Set-up: scale not given: the % may be the effect or the level left. The following applies: route intraperitoneal.
For assay [11], the system named is Mus musculus. The assay is described as follows: Antiobesity activity in C57BL/6 mouse assessed as weight loss at 5 mg/kg, ip administered on day 1, 4, 5, 7, 17, 15, 19 measured on day 9 relative to control. Type of assay: functional. The note with it: route intraperitoneal.
For a further assay, the system named is Hypothalamus. As to the kind of experiment: Effect on CART gene expression in Sabra mouse hypothalamus assessed as change in mRNA level at 1 mg/kg, ip administered on day 8, 9, 10, 11, 14, 18, 24 and 32 by RT-PCR analysis relative to GAPDH. Type of assay: functional. The note with it: route intraperitoneal.
Assay [12] relates to Mus musculus. As to the kind of experiment: Enhancement of cognitive function in Sabra mouse at 10 mg/kg, ip administered on day 6 to 10 by eight-arm maze test relative to control. In kind it is functional, organism-based. Set-up: dose 10 mg/kg.
Assay [13] concerns Mus musculus. As to the kind of experiment: Antiobesity activity in C57BL/6 mouse assessed as change in glucose level in blood at 5 mg/kg, ip administered on day 1, 4, 5, 7, 17, 15, 19 measured on day 15 relative to control. In kind it is functional. The following applies: route intraperitoneal.
Assay [14] concerns Mus musculus. As to the kind of experiment: Antiobesity activity in leptin-deficient ob/ob mouse assessed as reduction in body weight at 10 mg/kg via oral gavage. Set-up: dose 10 mg/kg. Type of assay: functional, organism-based.
Assay [15] deals with Mus musculus. The assay is described as follows: Antiobesity activity in C57BL/6 mouse assessed as change in glucose level in blood at 5 mg/kg, ip administered on day 1, 4, 5, 7, 17, 15, 19 measured on day 5 relative to control. In kind it is functional. The note with it: route intraperitoneal.
The subject of assay [16] is Mus musculus. The assay is described as follows: Antiobesity activity in Sabra mouse assessed as change in food consumption at 1 mg/kg, ip administered on day 8, 9, 10, 11, 14, 18, 24 and 32 measured after 6 weeks relative to control. In kind it is functional. The following applies: route intraperitoneal.
In assay [17] the target is T1, Fatty-acid amide hydrolase 1 (Rattus norvegicus) (UniProt P97612).
T1 sequence (whole entry): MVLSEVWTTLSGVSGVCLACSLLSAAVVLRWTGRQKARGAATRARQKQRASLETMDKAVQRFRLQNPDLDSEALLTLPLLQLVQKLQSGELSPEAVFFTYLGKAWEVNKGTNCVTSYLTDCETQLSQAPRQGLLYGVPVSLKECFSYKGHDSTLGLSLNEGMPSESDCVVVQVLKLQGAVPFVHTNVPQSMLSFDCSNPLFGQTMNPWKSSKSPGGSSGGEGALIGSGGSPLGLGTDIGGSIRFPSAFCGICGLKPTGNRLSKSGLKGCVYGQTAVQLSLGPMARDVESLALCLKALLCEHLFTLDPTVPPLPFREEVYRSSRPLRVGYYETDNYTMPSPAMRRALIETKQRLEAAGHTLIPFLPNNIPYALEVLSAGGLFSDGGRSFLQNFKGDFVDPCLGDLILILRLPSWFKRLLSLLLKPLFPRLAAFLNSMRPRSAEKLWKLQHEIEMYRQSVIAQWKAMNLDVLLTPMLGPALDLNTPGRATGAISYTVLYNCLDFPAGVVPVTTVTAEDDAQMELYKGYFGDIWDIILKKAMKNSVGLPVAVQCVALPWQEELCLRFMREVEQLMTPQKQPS
The assay is described as follows: Inhibition of rat brain FAAH using [3H]anandamide as substrate at 10 uM preincubated for 15 mins before substrate addition relative to control.

The subject of assay [18] is Mus musculus. As to the kind of experiment: Antiobesity activity in Sabra mouse assessed as reduction in body weight at 1 mg/kg, ip administered on day 0, 10, 11, 12, 24, 29 measured on day 12 relative to control. Type of assay: functional. The note with it: route intraperitoneal. Set-up: scale not given: the % may be the effect or the level left.
The subject of assay [19] is Mus musculus. The assay is described as follows: Antiobesity activity in high fat diet fed C57BL/6 mouse assessed as reduction in body weight at 1 mg/kg, ip administered on day 3, 6, 8, 9, 10 measured on day 8 relative to control. In kind it is functional. Set-up: scale not given: the % may be the effect or the level left. The following applies: route intraperitoneal.

Assay [20] concerns Mus musculus. As to the kind of experiment: Antiobesity activity in Sabra mouse assessed as reduction in body weight at 1 mg/kg, ip administered on day 0, 10, 11, 12, 24, 29 measured on day 33 relative to control. Set-up: scale not given: the % may be the effect or the level left. Type of assay: functional. The following applies: route intraperitoneal.
The subject of assay [21] is Mus musculus. The assay is described as follows: Antiobesity activity in C57BL/6 mouse assessed as weight loss at 5 mg/kg, ip administered on day 1, 4, 5, 7, 17, 15, 19 measured on day 3 relative to control. The following applies: route intraperitoneal. Type of assay: functional.
Assay [22] concerns Mus musculus. The assay is described as follows: Antiobesity activity in Sabra mouse assessed as change in body weight at 1 mg/kg, ip administered on day 8, 9, 10, 11, 14, 18, 24 and 32 measured on day 9 relative to control. Type of assay: functional. The note with it: route intraperitoneal.

As usually defined, the inhibition is how much of the control response was suppressed.

Calls of active or inactive are those of the source. The calls are words filed in the database; no cut-off is given here.

`CCCCCCCC/C=C\CCCCCCCC(=O)N[C@H](CO)C(C)C`: the Activity in the assay on Mus musculus [1] is on record as 20%; in the assay with Mus musculus [3], -6%; with Mus musculus [4], -4.9%; in the assay on Mus musculus [5], 45%; in the assay on Mus musculus [6], -6.9%; with Mus musculus [7], 0.5%. Besides, the Activity in the assay on Mus musculus [8] is listed as -4.05%; in the assay on Mus musculus [9] it was -4.24%; in the assay with Mus musculus [10], -1.85%; with Mus musculus [11] it was -3%; in the assay with Hypothalamus, 15%; in the assay on Mus musculus [13] it was -16.3%. Further, the Activity in the assay with Mus musculus [15] was -5.7%; in the assay on Mus musculus [16], 83.6%; in the assay on Mus musculus [18], -1.79%; in the assay on Mus musculus [19], -3.2%; in the assay on Mus musculus [20], -4%; in the assay with Mus musculus [21], -2.6%. Also, in the assay with Mus musculus [22], the Activity is -2.2%. For the same molecule, in the assay with Mus musculus [2], the result was Active. For the same molecule, the outcome in the assay on Mus musculus [12] and in the assay on Mus musculus [14] was inactive. For the same molecule, the inhibition in assay [17] was determined as 14%.
